According to patent publication US20250345362A1, “MULTI-IONIC COMPLEX FOR THE PREVENTION OR TREATMENT OF INFLAMMATION” (YNIOS PHARMA, priority 2022, published 2025):

Key:
[1] = test system: sensory neurons; test: Myelinated sensory neurons with or without cisplatin: neuron count, neurite length, myelin sheath length (Examples 7 and 8a, curative protocol); format: cell-based, rat; conditions: for Average percentage of neurite length relative to control / Average percentage of sensory neuron count relative to control: isolated ions + cisplatin (12 μM, 24 h), Table 3
Description: Female rats with 15 days gestation were killed by cervical dislocation (Wistar rats; January Lab) and fetuses were removed from the uterus. Embryonic DRGs were collected and placed in an icy medium of Leibovitz 15 (L15; PanBiotech, Ref P04-27055, Batch: 5331021) containing 2% Penicillin-Streptomycin (PS; PanBiotech, ref: P06-07100, Batch: 9300621) and 1% bovine serum albumin (BSA; PanBiotech, ref: P06-1391100, lot: H210207). DRG were dissociated by trypsinization for 20 minutes (min) at 37° C. (Trypsin EDTA 1X; PanBiotech, Ref: P10-023100, Batch: 8600621). The reaction was halted by the addition of Dulbecco's modified Eagle medium (DMEM; PanBiotech, Ref: P04-03600, Batch: 1130721) containing DNase I grade II (0.1 mg/ml; PanBiotech, Ref: P60-37780100, Batch: H181015) and 10% fetal calf serum (FCS; Invitrogen, ref: 10270106, lot: 2319479). The cells were then mechanically dissociated by 3 passes through a 10 ml pipette. The cells were then centrifuged at 180×g for 10 min at +4° C. on a layer of BSA (3.5%) in medium L15. The supernatant was discarded and the cell pellets were resuspended in a defined culture medium consisting of Neurobasal (Invitrogen, Ref: 21103049, Batch: 2348949) supplemented with 2% B27; (Invitrogen, ref: 17504-044, Batch: 2336991), L-glutamine (2 mM; PanBiotech, Ref: P04-80100, Batch: 2770620), 2% PS and 50 ng/mL NGF (Sigma, Ref: N1408, Lot: SLCG2596). The viable cells were then counted in a Neubauer cytometer using the trypan blue exclusion test. The cells were seeded to a density of 12000 cells/wells in 96-well plates (pre-coated with poly-D-lysine; Greiner, Ref: 655940, Lot: E200933A) and were grown at 37° C. in humidified air (95%/CO2 (5%) atmosphere. Half of the middle was changed every 2 days with fresh medium. The cells are maintained for 7 days to allow the proliferation of Schwann cells and sensory neurons. On day 8, the medium is supplemented with 50 μg/mL of ascorbic acid (AA; Sigma, Ref 092902, Batch: 05316HJ-438) to initiate the differentiation of basal Schwann cells into myelinating Schwann cells.
Cis-diammineplatinum(II) dichloride (cisplatin; Sigma, ref: P4394, lot: MKCN8054) was reconstituted in DMSO at 24 mM (stock solution). The control environment was prepared under the same conditions. After 12 days of culture with AA, the primary sensory neurons were pretreated for 2 hours with the compositions of Example 1 or with a reference compound (NGF, 50 ng/ML) and then intoxicated with cisplatin. The cisplatin preparation was used on neurons at a final concentration of 12 μM diluted in control medium for 24 hours of incubation.
In parallel, the effect of isolated or combined ions two by two on the survival of sensory neurons and the length of neurites was also evaluated under the same conditions. The solutions are all prepared from chlorides of the ions tested.
The effect of ion combinations on sensory neuron survival and neurite length was evaluated under the same conditions as described above. The solutions are all prepared from chlorides of the ions tested.

[2] = test system: IL-1β; test: IL-1β in supernatant of LPS-stimulated human mononuclear blood cells; format: cell-based; conditions: for Results IL-1β (percentage relative to the vehicle): 2 h pretreatment, LPS 100 ng/mL 6 h; for reduction of IL-1β levels, in words: LPS 100 ng/mL, FIG. 7-9
Description: (§1) Methods: Mononuclear blood cells are isolated from the blood of healthy donors through Ficoll density gradient (Ficoll-Paque PLUS; GE Healthcare; 11778538) with density gradient centrifuge tubes (SepMate; StemCell Technologies; 85450). The mononuclear blood cells are deposited (200000 cells per well) in 96-well plates, pretreated either with the vehicle (0.179% PBS) or with a composition according to the invention or ions alone (see Table 6) for 2 hours, then stimulated for 6 hours without (vehicle 0.002% H2O) or with lipopolysaccharides (LPS at 100 ng/mL; Invivogen, tlrl-b5lps) at 37° C., 5% C02 in an RPMI medium containing 10% fetal calf serum and 1% penicillin/streptomycin. After 6 hours of incubation, the culture supernatant is collected and stored at −20° C. until cytokine analysis. The level of cytokines (IL-1β and IL-18) is quantified in the culture supernatant by ELISA according to the manufacturer's instructions (R&D Systems; DY201, DY318-05). Table 6 summarizes the percentage of IL-1β and IL-18 cytokines measured for each condition relative to the vehicle (ns: not significant)

[3] = test system: IL-18; test: IL-18 in supernatant of LPS-stimulated human mononuclear blood cells; format: cell-based; conditions: for Results IL-18 (percentage relative to the vehicle): 2 h pretreatment, LPS 100 ng/mL 6 h; for reduction of IL-18 levels, in words: LPS 100 ng/mL, FIG. 7-9
Description: as §1

[4] = test system: sensory neurons; test: Myelinated sensory neurons with or without cisplatin: neuron count, neurite length, myelin sheath length (Examples 7 and 8a, curative protocol); format: cell-based, rat; conditions: without cisplatin (healthy cells), Table 2
[5] = rats; cited from earlier work
[6] = test system: sensory neurons; test: Myelinated sensory neurons with or without cisplatin: survival, neurite length, myelin sheath length (Example 8b, protection protocol); format: cell-based, rat; conditions: cisplatin 12 μM, 24 hours
Description: The primary endpoint was the measurement of sensory neurons survival, the assessment of neurite length and myelin sheath length of sensory neurons after cisplatin intoxication and without intoxication.
Cis-diammineplatinum (II) dichloride (cisplatin; Sigma, ref: P4394, lot: MKCL0026) was reconstituted in medium at 10 mg/ml (stock solution). The control environment was prepared under the same conditions. After 12 days of culture with AA, primary sensory neurons were pretreated for 2 hours with a 3-concentration multi-ionic complex and then intoxicated with cisplatin. The cisplatin preparation was used on neurons at a final concentration of 12 μM diluted in control medium for 24 hours of incubation.
The concentrations of the multi-ionic complex were: • 1. TA6496: Li 10.37 mmol/kg, Mg 2.27 mmol/kg, K 16.88 mmol/kg • 2. TA6440: Li 5.76 mmol/kg, Mg 1.26 mmol/kg, K 9.38 mmol/kg • 3. TA6415: Li 1.73 mmol/kg, Mg 0.38 mmol/kg, K 2.81 mmol/kg
The following conditions were assessed: • Control medium • Control+cisplatin (12 μM, 24h) • Multi-ionic complex, at 3 different concentrations TA6496, TA6440 or TA6415+cisplatin (12 μM, 24h) • Multi-ionic complex, at 3 different concentrations TA6496, TA6440 or TA6415.
This study was performed with 6 wells per condition and duplicated for validation of results. The data included and analysed are the combined results of the 2 studies. […]

Row | SMILES | Average percentage of neurite length relative to control [1] [%] | Average percentage of sensory neuron count relative to control [1] [%] | Results IL-1β (percentage relative to the vehicle) ([2]; listed as K - 660 mg/L) [%] | Results IL-1β (percentage relative to the vehicle) ([2]; listed as K - 880 mg/L) [%] | reduction of IL-1β levels, in words [2] | Results IL-18 (percentage relative to the vehicle) ([3]; listed as K - 660 mg/L) [%] | Results IL-18 (percentage relative to the vehicle) ([3]; listed as K - 880 mg/L) [%] | reduction of IL-18 levels, in words [3] | Average percentage of neurite length relative to control [4] [%] | Average percentage of sensory neuron count relative to control [4] [%] | intravenous lethal dose 50 (LD50) over 24 hours [5] [mg/kg] | effect on neurite length, in words ([1]; cisplatin 12 μM, 24 h) | effect on survival of sensory neurons (cisplatin-induced apoptosis), in words ([1]; cisplatin 12 μM, 24 h) | effect on myelin sheath length, in words [6] | Results IL-1β (percentage relative to the vehicle) ([2]; listed as Mg - 55.4 mg/L) [%] | Results IL-1β (percentage relative to the vehicle) ([2]; listed as Mg - 73.9 mg/L) [%] | Results IL-18 (percentage relative to the vehicle) ([3]; listed as Mg - 55.4 mg/L) [%] | Results IL-18 (percentage relative to the vehicle) ([3]; listed as Mg - 73.9 mg/L) [%]
1 | [Cl-].[K+] [K, potassium chloride] | 91 | 58 | 80.52 | 85.31 | Neither magnesium, lithium, nor potassium, alone, demonstrated significant reductions | 72.48 | 69.71 | Neither magnesium, lithium, nor potassium, alone, demonstrated significant reductions | 115 | 117 | 142 |  |  |  |  |  |  | 
2 | [Mn+2] [Manganese] |  |  |  |  |  |  |  |  |  |  |  | without demonstrating any significant effect | without demonstrating any significant effect | without demonstrating any significant effect |  |  |  | 
3 | [Cl-].[Cl-].[Mg+2] [Mg, magnesium chloride] | 73 | 68 |  |  | Neither magnesium, lithium, nor potassium, alone, demonstrated significant reductions |  |  | Neither magnesium, lithium, nor potassium, alone, demonstrated significant reductions | 98 | 108 |  |  |  |  | 100.91 | 97.41 | 102.41 | 95.28
